From patent US20220187282A1, “CARDIOMYOCYTE PROLIFERATION” (The Council of the Queensland Institute of Medical Research, priority 2019, published 2022)
Like-named read-outs stand apart in the source and are kept apart here.

Tests used:
Assay type in all cases: biochemical
kinases [1] = target: kinases (Homo sapiens, UniProt Q13627); conditions: DYRK1A FRET-Z-Lyte SP; Test Conc(μM):ATP Conc(μM) 1:100
kinases [2] = target: kinases (Homo sapiens, UniProt Q9Y4K4); conditions: MAP4K5 (KHS1) FRET-Z-Lyte SP; Test Conc(μM):ATP Conc(μM) 1:50
kinases [3] = target: kinases (Homo sapiens, UniProt Q8TD19); conditions: NEK9 *Mn* FRET-Z-Lyte SP; Test Conc(μM):ATP Conc(μM) 1:100
kinases [4] = target: T1, kinases (Homo sapiens, UniProt O15530)
T1 sequence (O15530 1-556): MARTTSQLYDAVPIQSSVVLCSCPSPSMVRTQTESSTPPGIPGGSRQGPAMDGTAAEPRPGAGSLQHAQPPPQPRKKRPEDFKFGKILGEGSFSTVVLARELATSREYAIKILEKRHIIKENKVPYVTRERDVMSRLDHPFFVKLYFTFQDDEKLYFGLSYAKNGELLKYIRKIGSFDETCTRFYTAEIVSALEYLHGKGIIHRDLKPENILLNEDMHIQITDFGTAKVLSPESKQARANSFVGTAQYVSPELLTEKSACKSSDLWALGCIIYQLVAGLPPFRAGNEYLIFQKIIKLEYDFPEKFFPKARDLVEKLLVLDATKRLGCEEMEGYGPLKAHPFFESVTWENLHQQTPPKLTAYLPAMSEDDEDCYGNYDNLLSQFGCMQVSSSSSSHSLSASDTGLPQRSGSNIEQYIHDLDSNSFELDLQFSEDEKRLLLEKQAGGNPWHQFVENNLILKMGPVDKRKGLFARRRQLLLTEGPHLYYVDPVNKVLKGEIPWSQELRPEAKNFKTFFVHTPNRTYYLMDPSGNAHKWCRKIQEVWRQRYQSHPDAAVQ

kinases [5] = target: kinases (Homo sapiens, UniProt Q13976); conditions: PRKG1 FRET-Z-Lyte SP; Test Conc(μM):ATP Conc(μM) 1:25
kinases (Homo sapiens, UniProt Q13976), sequence (Q13976 whole entry): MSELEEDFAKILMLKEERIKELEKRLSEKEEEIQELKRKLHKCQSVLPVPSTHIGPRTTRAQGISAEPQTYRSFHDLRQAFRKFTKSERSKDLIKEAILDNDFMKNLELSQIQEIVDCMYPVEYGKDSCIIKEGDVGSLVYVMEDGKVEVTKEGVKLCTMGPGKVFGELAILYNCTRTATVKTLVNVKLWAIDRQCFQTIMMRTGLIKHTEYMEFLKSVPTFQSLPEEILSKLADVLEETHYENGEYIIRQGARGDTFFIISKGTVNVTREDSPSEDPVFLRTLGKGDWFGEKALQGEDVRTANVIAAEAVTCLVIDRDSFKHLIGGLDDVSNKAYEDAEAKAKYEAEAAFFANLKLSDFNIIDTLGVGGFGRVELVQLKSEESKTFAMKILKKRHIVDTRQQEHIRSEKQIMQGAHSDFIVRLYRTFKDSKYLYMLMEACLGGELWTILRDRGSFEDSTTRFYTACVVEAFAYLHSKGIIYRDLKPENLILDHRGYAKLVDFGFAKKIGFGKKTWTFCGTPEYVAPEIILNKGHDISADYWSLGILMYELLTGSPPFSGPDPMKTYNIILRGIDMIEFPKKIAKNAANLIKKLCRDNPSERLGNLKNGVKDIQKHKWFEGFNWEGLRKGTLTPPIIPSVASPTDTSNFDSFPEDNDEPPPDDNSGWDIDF

kinases [6] = target: kinases (Homo sapiens, UniProt Q86Y07); conditions: VRK2 FRET-Lantha SP; Test Conc(μM) 1
kinases [7] = target: kinases (Homo sapiens, UniProt P22612); conditions: PRKACG FRET-Lantha SP; Test Conc(μM) 1
kinases [8] = target: kinases (Homo sapiens, UniProt P17948); conditions: FLT1 (VEGFR1) *Mn* Z-Lyte SP; Test Conc(μM):ATP Conc(μM) 1:150
kinases (Homo sapiens, UniProt P17948), sequence (P17948 27-1338): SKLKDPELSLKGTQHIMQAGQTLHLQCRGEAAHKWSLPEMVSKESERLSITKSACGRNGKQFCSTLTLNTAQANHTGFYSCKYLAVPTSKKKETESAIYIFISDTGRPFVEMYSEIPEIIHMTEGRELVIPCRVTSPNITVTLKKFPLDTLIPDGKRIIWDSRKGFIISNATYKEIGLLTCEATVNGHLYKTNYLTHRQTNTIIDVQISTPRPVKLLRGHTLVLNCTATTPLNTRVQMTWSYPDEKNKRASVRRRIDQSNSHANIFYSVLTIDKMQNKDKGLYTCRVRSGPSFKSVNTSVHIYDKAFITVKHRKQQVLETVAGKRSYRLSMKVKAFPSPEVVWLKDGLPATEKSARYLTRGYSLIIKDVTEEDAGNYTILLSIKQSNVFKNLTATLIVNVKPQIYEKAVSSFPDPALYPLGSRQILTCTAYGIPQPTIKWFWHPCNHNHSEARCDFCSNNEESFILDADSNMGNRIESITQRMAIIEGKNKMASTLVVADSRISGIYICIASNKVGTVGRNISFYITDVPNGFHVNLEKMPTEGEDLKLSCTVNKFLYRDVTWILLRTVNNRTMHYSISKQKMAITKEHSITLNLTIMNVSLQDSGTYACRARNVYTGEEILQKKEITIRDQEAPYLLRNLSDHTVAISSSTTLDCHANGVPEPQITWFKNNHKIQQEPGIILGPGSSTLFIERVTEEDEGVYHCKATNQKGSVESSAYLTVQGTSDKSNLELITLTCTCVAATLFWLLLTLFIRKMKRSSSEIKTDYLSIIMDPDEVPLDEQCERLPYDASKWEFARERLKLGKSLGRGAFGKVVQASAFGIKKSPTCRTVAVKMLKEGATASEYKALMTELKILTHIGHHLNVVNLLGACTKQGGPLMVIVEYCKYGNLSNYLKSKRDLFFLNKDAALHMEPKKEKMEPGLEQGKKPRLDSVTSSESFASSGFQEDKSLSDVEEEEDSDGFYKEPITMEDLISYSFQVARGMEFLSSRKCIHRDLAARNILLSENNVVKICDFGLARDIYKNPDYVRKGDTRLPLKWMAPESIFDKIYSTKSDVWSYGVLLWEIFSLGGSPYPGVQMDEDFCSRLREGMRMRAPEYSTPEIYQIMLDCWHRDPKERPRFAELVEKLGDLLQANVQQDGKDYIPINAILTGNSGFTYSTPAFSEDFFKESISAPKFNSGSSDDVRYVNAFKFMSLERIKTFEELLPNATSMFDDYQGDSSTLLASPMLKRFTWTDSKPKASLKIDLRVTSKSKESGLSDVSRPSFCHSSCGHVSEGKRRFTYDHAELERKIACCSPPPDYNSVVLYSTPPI

kinases [9] = target: kinases (Homo sapiens, UniProt Q16620); conditions: NTRK2 (TRKB) *Mn* Z-Lyte SP; Test Conc(μM):ATP Conc(μM) 1:25
kinases [10] = target: kinases (Homo sapiens, UniProt O15075); conditions: DCAMKL1 (DCLK1) FRET-Z-Lyte SP
kinases [11] = target: kinases (Homo sapiens, UniProt O75716); conditions: STK16 (PKL12) FRET-Lantha SP; Test Conc(μM) 1
kinases (Homo sapiens, UniProt O75716), sequence (O75716 whole entry): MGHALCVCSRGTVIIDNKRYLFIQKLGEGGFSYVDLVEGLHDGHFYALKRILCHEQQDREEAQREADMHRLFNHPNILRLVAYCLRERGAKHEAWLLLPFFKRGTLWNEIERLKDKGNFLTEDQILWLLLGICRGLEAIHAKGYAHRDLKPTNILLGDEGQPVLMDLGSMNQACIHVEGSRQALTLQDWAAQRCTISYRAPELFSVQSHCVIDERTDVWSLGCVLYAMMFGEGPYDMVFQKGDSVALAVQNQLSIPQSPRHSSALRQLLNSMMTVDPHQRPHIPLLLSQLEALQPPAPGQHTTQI

kinases [12] = target: kinases (Homo sapiens, UniProt Q8NEV4); conditions: MYO3A (MYO3 alpha) Lantha SP; Test Conc(μM) 1
kinases [13] = target: kinases (Homo sapiens, UniProt P54646)
kinases (Homo sapiens, UniProt P54646), sequence (P54646 whole entry): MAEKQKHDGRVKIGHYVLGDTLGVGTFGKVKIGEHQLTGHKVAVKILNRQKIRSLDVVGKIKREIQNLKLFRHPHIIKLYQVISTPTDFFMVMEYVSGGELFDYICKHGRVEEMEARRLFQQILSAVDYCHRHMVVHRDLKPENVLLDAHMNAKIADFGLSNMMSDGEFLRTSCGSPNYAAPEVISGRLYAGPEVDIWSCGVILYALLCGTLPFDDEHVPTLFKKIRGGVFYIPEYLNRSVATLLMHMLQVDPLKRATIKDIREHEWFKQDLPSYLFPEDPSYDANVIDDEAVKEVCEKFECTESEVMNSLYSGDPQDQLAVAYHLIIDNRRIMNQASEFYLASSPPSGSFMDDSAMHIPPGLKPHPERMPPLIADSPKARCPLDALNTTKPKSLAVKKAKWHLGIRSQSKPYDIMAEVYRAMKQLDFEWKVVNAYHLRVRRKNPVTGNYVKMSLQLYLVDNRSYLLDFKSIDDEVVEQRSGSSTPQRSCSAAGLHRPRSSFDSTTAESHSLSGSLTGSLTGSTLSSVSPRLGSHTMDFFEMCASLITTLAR

kinases [14] = target: kinases (Homo sapiens, UniProt Q96SB4); conditions: SRPK1 FRET-Z-Lyte SP; Test Conc(μM):ATP Conc(μM) 1:25
kinases [15] = target: kinases (Homo sapiens, UniProt P00533); conditions: EGFR (ErbB1) *Mn* Z-Lyte SP; Test Conc(μM):ATP Conc(μM) 1:10
kinases [16] = target: kinases (Homo sapiens, UniProt Q86UX6); conditions: STK32C (YANK3) FRET-Lantha SP; Test Conc(μM) 1
kinases [17] = target: kinases (Homo sapiens, UniProt Q9Y5S2); conditions: CDC42 BPB (MRCKB) Z-Lyte SP; Test Conc(μM):ATP Conc(μM) 1:5
kinases [18] = target: kinases (Homo sapiens, UniProt P06493)
kinases (Homo sapiens, UniProt P06493), sequence (P06493 whole entry): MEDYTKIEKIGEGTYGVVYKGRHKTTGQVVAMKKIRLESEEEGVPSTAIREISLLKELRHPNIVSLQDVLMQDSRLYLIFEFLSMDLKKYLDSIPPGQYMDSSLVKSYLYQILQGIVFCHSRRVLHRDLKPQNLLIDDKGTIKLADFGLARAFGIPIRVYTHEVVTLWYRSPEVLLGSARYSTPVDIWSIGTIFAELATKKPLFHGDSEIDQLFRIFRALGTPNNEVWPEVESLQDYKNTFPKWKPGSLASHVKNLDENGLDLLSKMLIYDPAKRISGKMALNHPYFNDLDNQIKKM

kinases [19] = target: kinases (Homo sapiens, UniProt Q16513); conditions: PKN2 (PRK2) FRET-lantha SP; Test Conc(μM) 1
kinases (Homo sapiens, UniProt Q16513), sequence (Q16513 whole entry): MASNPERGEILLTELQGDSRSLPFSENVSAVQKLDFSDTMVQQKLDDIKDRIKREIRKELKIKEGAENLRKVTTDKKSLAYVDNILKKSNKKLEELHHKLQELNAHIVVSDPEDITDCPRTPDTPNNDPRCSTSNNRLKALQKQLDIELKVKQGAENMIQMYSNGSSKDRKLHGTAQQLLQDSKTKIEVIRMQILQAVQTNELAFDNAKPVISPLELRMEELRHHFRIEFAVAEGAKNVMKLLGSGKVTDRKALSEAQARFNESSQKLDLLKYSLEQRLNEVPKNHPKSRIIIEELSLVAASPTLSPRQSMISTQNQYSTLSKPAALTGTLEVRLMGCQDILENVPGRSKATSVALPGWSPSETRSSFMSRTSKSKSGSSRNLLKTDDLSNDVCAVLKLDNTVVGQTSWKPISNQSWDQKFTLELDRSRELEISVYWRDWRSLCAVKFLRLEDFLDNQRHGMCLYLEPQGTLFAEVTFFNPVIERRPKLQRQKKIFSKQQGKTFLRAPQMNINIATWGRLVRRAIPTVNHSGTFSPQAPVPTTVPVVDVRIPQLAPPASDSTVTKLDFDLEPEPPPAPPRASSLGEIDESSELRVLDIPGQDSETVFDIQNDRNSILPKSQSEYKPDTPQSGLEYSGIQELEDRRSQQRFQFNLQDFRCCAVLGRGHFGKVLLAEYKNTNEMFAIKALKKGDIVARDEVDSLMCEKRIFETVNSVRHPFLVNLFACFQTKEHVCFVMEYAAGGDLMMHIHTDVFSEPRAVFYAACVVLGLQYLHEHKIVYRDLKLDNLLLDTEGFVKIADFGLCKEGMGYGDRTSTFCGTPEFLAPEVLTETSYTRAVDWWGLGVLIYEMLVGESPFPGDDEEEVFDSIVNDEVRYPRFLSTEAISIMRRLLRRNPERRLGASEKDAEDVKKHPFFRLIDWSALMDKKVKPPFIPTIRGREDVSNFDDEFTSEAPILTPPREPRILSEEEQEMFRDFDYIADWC

kinases [20] = target: kinases (Homo sapiens, UniProt P15735); conditions: PHKG2 FRET-Z-Lyte SP; Test Conc(μM):ATP Conc(μM) 1:10
kinases [21] = target: kinases (Homo sapiens, UniProt Q9H792); conditions: PEAK1 FRET-Z-Lyte SP; Test Conc(μM):ATP Conc(μM) 1:50
kinases [22] = target: kinases (Homo sapiens, UniProt O75582); conditions: RPS6KA5 (MSK1) FRET-Z-Lyte SP; ATP Conc(μM):Test Conc(μM) 1:50
kinases (Homo sapiens, UniProt O75582), sequence (O75582 whole entry): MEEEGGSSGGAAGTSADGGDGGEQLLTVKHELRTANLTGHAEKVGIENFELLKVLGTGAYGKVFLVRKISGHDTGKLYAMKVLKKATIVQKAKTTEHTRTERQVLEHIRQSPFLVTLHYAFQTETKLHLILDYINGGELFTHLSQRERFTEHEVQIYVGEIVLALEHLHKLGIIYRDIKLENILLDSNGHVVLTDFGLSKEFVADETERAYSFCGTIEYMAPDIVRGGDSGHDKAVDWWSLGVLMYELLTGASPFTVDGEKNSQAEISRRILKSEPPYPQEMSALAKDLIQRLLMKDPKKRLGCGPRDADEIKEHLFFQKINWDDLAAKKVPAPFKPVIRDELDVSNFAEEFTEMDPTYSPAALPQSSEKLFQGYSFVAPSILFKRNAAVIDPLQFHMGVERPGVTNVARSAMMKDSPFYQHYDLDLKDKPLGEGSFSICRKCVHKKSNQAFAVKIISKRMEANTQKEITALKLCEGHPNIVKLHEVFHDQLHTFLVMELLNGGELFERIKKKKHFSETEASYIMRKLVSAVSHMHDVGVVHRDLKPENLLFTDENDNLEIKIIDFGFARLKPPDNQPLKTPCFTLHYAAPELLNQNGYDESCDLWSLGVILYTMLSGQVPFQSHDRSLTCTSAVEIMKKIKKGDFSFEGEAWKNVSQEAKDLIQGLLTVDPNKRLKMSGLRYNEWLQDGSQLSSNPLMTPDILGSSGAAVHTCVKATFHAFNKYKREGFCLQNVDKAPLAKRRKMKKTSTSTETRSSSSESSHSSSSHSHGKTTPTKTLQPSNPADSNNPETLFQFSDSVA

[23] = PDK1 (Direct) FRET-Z-lyte SP, Test Conc(μM):ATP Conc(μM) 1:25
[24] = PDK1 Cascade FRET-Z-Lyte SP, Test Conc(μM):ATP Conc(μM) 1:100
[25] = AMPK (A2/B2/G1) FRET-Lantha SP, Test Conc(μM) 1
[26] = AMPK (A2/B2/G2) FRET-Lantha SP, Test Conc(μM) 1
[27] = AMPK A2/B1/G1 FRET-Z-Lyte SP, Test Conc(μM):ATP Conc(μM) 1:150
[28] = AMPK A2/B1/G2 FRET-Z-Lyte SP, Test Conc(μM):ATP Conc(μM) 1:10
[29] = AMPK A2/B1/G3 FRET-Z-Lyte SP, Test Conc(μM):ATP Conc(μM) 1:25
[30] = AMPK A2/B2/G3 FRET-Z-Lyte SP, Test Conc(μM):ATP Conc(μM) 1:50
[31] = CDK1/cyclin A2 FRET-Lantha SP, Test Conc(μM) 1
[32] = CDK1/cyclin B FRET-Z-Lyte SP, Test Conc(μM):ATP Conc(μM) 1:25

Cc1ccc(NC(=O)c2ccnc(N3CCOCC3)c2)cc1Nc1ccnc(N2CC(C)OC(C)C2)n1 (stereo not shown) [compound 3]
Mean Inhib (%) (kinases [1]): 6.2%
Mean Inhib (%) (kinases [2]): −7.8%
Mean Inhib (%) (kinases [3]): 1.8%
Mean Inhib (%) (kinases [4]; [23]): 0.4%
Mean Inhib (%) (kinases [4]; [24]): 3.7%
Mean Inhib (%) (kinases [5]): 5.7%
Mean Inhib (%) (kinases [6]): −5.7%
Mean Inhib (%) (kinases [7]): 0.7%
Mean Inhib (%) (kinases [8]): 11.5%
Mean Inhib (%) (kinases [9]): 1.9%
Mean Inhib (%) (kinases [10]; Test Conc(μM):ATP Conc(μM) 1:300): 31.0%
Mean Inhib (%) (kinases [11]): −1.7%
Mean Inhib (%) (kinases [12]): 10.8%
Mean Inhib (%) (kinases [13]; [25]): −0.8%
Mean Inhib (%) (kinases [13]; [26]): −1.1%
Mean Inhib (%) (kinases [13]; [27]): −3.5%
Mean Inhib (%) (kinases [13]; [28]): 11.4%
Mean Inhib (%) (kinases [13]; [29]): 7.8%
Mean Inhib (%) (kinases [13]; [30]): 3.8%
Mean Inhib (%) (kinases [14]): 7.6%
Mean Inhib (%) (kinases [15]): 1.5%
Mean Inhib (%) (kinases [16]): −1.0%
Mean Inhib (%) (kinases [17]): −7.0%
Mean Inhib (%) (kinases [18]; [31]): −1.0%
Mean Inhib (%) (kinases [18]; [32]): 3.8%
Mean Inhib (%) (kinases [19]): −2.6%
Mean Inhib (%) (kinases [20]): −2.1%
Mean Inhib (%) (kinases [21]): 0.8%
Mean Inhib (%) (kinases [22]): 1.6%

Cc1cc(Oc2ccnc(Nc3ccc(S(N)(=O)=O)cc3)c2)c(-c2ccccn2)nc1C [compound 65]
Mean Inhib (%) (kinases [1]): −1.9%
Mean Inhib (%) (kinases [2]): 38.0%
Mean Inhib (%) (kinases [3]): −4.1%
Mean Inhib (%) (kinases [4]; [23]): 6.9%
Mean Inhib (%) (kinases [4]; [24]): 9.4%
Mean Inhib (%) (kinases [5]): 0.3%
Mean Inhib (%) (kinases [6]): −16.6%
Mean Inhib (%) (kinases [7]): 2.2%
Mean Inhib (%) (kinases [8]): 2.7%
Mean Inhib (%) (kinases [9]): 0.7%
Mean Inhib (%) (kinases [10]; Test Conc(μM):ATP Conc(μM) 0.25): 11.8%
Mean Inhib (%) (kinases [11]): 3.4%
Mean Inhib (%) (kinases [12]): 1.6%
Mean Inhib (%) (kinases [13]; [25]): −1.2%
Mean Inhib (%) (kinases [13]; [26]): 1.4%
Mean Inhib (%) (kinases [13]; [27]): 2.9%
Mean Inhib (%) (kinases [13]; [28]): −6.7%
Mean Inhib (%) (kinases [13]; [29]): −5.2%
Mean Inhib (%) (kinases [13]; [30]): −4.3%
Mean Inhib (%) (kinases [14]): 2.9%
Mean Inhib (%) (kinases [15]): −1.9%
Mean Inhib (%) (kinases [16]): 7.8%
Mean Inhib (%) (kinases [17]): −5.0%
Mean Inhib (%) (kinases [18]; [31]): 25.4%
Mean Inhib (%) (kinases [18]; [32]): 3.2%
Mean Inhib (%) (kinases [19]): 5.1%
Mean Inhib (%) (kinases [20]): 4.0%
Mean Inhib (%) (kinases [21]): 55.2%
Mean Inhib (%) (kinases [22]): 10.0%
